Source: PMC11975176 (Clinical Pharmacology in Drug Development, 2025)
Where two headings read alike, the source gives them in different places.

What was measured:
[1] = NA (ETV, TFV) plasma PK (NCA) with coadministered bepirovirsen in the Phase 2b B-Clear study; type: in vivo; conditions: human, oral; for concentration at 24 h: B-Clear, mean ± SD, read-out: Ctau; for AUC(0-t): read-out: AUC0-24
Procedure: NA plasma PK parameters were calculated using NCA methods with Phoenix WinNonlin Version 8.1.0.3530. PK parameters included Cmax, AUC from time zero to 24 hours after dosing, and plasma concentration at the end of the dosing interval. Calculations were based on the actual sampling times. PK samples in the B‐Clear study were assayed for bepirovirsen, ETV, and TFV in plasma at the bioanalytical facility Labcorp Drug Development, Shanghai, China, using validated liquid–liquid extraction for bepirovirsen, solid‐phase extraction for ETV, and protein precipitation for TFV assays followed by high‐performance liquid chromatography with mass spectrometric detection. All plasma samples were assayed within the established long‐term frozen, freeze/thaw, and processed extract stability.

[2] = cited from earlier work

| Cmax ([1]; 0.5 mg) [ng/mL] | concentration at 24 h ([1]; 0.5 mg, ETV 0.5 mg once daily with bepirovirsen) [ng/mL] | AUC(0-t) ([1]; 0.5 mg) [ng·h/mL] | Cmax ([1]; 25 mg) [ng/mL] | AUC(0-t) ([1]; 25 mg) [ng·h/mL] | Cmax ([1]; 300 mg) [ng/mL] | AUC(0-t) ([1]; 300 mg) [ng·h/mL] | concentration at 24 h ([1]; TFV administered as TAF 25 mg once daily with bepirovirsen) [ng/mL] | concentration at 24 h ([1]; TFV administered as TDF 245 or 300 mg once daily with bepirovirsen) [ng/mL] | SMILES | Cmax ([2]; in vivo, 0.5 mg) [ng/mL] | tmax ([2]; in vivo) | tmax ([2]; after dosing) | AUC0-24 ([2]; in vivo, 25 mg) | Cmax ([2]; in vivo, 25 mg) | AUC0-24 ([2]; in vivo, 300 mg) [ng·h/mL] |
| --- | --- | --- | --- | --- | --- | --- | --- | --- | --- | --- | --- | --- | --- | --- | --- |
| 6.5 ± 2.3 | 0.5 ± 0.1 | 24.4 ± 6.8 |  |  |  |  |  |  | C=C1[C@H](CO)[C@@H](O)C[C@@H]1n1cnc2c(=O)[nH]c(N)nc21 [ETV, entecavir] | 4.2 | approximately 1 hour |  |  |  |  |
|  |  |  | 19.4 ± 5.9 | 308 ± 105 | 319 ± 95.9 | 2750 ± 661 | 10.3 ± 3.5 | 57 ± 17.1 | C[C@H](Cn1cnc2c(N)ncnc21)OCP(=O)(O)O [TFV, tenofovir] |  |  | approximately 1 hour | 400 (35.2) ng•h/mL | 30.0 (24.6) ng/mL | 2290 ± 690 |
